Drawing on patent publication US8624040B2, “Substituted hydroxamic acids and uses thereof” (Millennium Pharmaceuticals, Inc., priority 2009, dated 2014), this text covers IC50 for 15 compounds.

This experiment concerns the target T1, purified human HDAC6 (Homo sapiens, UniProt Q9UBN7).
T1 construct: purchased BPS Bioscience 5006
T1 sequence (Q9UBN7 1-1215): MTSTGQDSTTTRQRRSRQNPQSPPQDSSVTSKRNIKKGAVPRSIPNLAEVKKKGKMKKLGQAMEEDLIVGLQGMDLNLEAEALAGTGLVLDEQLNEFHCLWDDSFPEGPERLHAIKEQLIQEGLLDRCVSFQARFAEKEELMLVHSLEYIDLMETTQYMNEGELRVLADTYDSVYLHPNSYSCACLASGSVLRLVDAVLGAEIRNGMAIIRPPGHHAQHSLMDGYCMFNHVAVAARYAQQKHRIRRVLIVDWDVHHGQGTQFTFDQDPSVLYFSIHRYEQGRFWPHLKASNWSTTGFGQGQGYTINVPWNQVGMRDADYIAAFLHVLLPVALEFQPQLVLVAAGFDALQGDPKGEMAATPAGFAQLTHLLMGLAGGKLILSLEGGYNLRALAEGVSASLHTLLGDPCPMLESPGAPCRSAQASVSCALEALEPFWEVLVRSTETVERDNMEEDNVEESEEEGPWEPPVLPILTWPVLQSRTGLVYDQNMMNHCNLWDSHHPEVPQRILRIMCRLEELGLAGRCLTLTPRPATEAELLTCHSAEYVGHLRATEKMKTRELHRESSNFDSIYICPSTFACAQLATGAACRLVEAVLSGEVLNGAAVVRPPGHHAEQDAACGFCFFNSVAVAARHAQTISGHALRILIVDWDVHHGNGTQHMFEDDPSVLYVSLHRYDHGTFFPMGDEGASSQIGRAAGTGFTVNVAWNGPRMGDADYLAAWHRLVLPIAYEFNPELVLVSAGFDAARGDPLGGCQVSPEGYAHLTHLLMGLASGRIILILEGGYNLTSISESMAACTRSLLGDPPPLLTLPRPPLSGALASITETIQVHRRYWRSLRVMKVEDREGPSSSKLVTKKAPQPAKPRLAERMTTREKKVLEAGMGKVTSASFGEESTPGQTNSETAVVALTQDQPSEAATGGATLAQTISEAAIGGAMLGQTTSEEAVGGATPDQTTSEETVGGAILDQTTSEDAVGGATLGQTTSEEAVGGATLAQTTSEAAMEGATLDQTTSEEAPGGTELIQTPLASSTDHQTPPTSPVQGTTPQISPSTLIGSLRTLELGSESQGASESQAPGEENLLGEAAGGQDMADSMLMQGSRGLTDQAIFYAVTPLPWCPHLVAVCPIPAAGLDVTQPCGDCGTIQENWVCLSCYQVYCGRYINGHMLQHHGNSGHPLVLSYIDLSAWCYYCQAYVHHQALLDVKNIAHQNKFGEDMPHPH
The experiment is described as follows: HDAC6 Enzyme Assay. It counts as biochemical. The note with it: enzyme inhibition, substrate Ac-Arg-Gly-Lys(Ac)-AMC, 1 hour at 30° C. The method, boiled down: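 Purified human HDAC6 incubated 1 h at 30 °C with Ac-Arg-Gly-Lys(Ac)-AMC peptide and compound; reaction stopped with trichostatin A, then trypsin releases AMC, read by fluorescence (Ex 340/Em 460 nm). IC50 from concentration-response curves relative to DMSO controls.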

In turn, `Cc1c(C(=O)NO)sc2c1CN(C(=O)c1ccc(C(C)(C)C)cc1)CC2` [Compound 225, 5-(4-tert-butylbenzoyl)-N-hydroxy-3-methyl-4,5,6,7-tetrahydrothieno[3,2-c]pyridine-2-carboxamide] returned an IC50 of 50 to 100 nM.

Consider `Cc1cnc(C(=O)N2CCc3sc(C(=O)NO)cc3C2)cn1` [Compound 29, N-hydroxy-5-(5-methylpyrazine-2-carbonyl)-4,5,6,7-tetrahydrothieno[3,2-c]pyridine-2-carboxamide], for which the IC50 lay in the range of 50 to 100 nM.

In the case of `O=C(NO)c1cc2c(s1)CN(C(=O)C1CCCCC1)CC2` [Compound 2, 6-(cyclohexylcarbonyl)-N-hydroxy-4,5,6,7-tetrahydrothieno[2,3-c]pyridine-2-carboxamide], the IC50 was < 50 nM.

Take `COc1ccc(C(=O)N2CCc3sc(C(=O)NO)c(C)c3C2)cc1` [Compound 209, N-hydroxy-5-(4-methoxybenzoyl)-3-methyl-4,5,6,7-tetrahydrothieno[3,2-c]pyridine-2-carboxamide]: the IC50 was < 50 nM.

As for `Cc1nc(-c2ccccn2)sc1C(=O)N1CCc2sc(C(=O)NO)c(C)c2C1` [Compound 199, N-hydroxy-3-methyl-5-[(4-methyl-2-pyridin-2-yl-1,3-thiazol-5-yl)carbonyl]-4,5,6,7-tetrahydrothieno[3,2-c]pyridine-2-carboxamide], the half-maximal inhibitory concentration (IC50) was in the range of 50 to 100 nM.

Regarding `O=C(NO)c1cc2c(s1)CN(C(=O)c1ccc(F)cc1)CC2` [Compound 182, 6-(4-fluorobenzoyl)-N-hydroxy-4,5,6,7-tetrahydrothieno[2,3-c]pyridine-2-carboxamide], the IC50 was 50 to 100 nM.

For `O=C(NO)c1cc2c(s1)CN(C(=O)NC1CCCCC1)CC2` [Compound 76, N^6-cyclohexyl-N^2-hydroxy-4,7-dihydrothieno[2,3-c]pyridine-2,6(5H)-dicarboxamide], the IC50 was < 50 nM.

On to `O=C(NO)c1cc2c(s1)CN(Cc1cccc3nsnc13)CC2` [Compound 25, 6-(2,1,3-benzothiadiazol-4-ylmethyl)-N-hydroxy-4,5,6,7-tetrahydrothieno[2,3-c]pyridine-2-carboxamide], for which the IC50 was < 50 nM.

For the compound `O=C(NO)c1cc2c(s1)CN(C(=O)c1ccc3ncccc3c1)CC2` [Compound 95, N-hydroxy-6-(quinoline-6-carbonyl)-4,5,6,7-tetrahydrothieno[2,3-c]pyridine-2-carboxamide], the IC50 was < 50 nM.

As for `O=C(NO)c1cc2c(s1)CCN(C(=O)C13CC4CC(CC(C4)C1)C3)C2` [Compound 33, 5-(adamantan-1-ylcarbonyl)-N-hydroxy-4,5,6,7-tetrahydrothieno[3,2-c]pyridine-2-carboxamide], the IC50 was < 50 nM.

In the case of `O=C(NO)c1cc2c(s1)CN(C(=O)c1ccc3ccccc3n1)CC2` [Compound 179, N-hydroxy-6-(quinolin-2-ylcarbonyl)-4,5,6,7-tetrahydrothieno[2,3-c]pyridine-2-carboxamide], the half-maximal inhibitory concentration (IC50) was < 50 nM.

Regarding `CC1(C)CN(C(=O)c2ccc3c(c2)OCCCO3)Cc2cc(C(=O)NO)sc21` [Compound 198, 5-(3,4-dihydro-2H-1,5-benzodioxepin-7-ylcarbonyl)-N-hydroxy-7,7-dimethyl-4,5,6,7-tetrahydrothieno[3,2-c]pyridine-2-carboxamide], the IC50 was > 1000 nM.

Turning to `CCCCc1ccc(NC(=O)N2CCc3cc(C(=O)NO)sc3C2)cc1` [Compound 169, N^6-(4-butylphenyl)-N^2-hydroxy-4,7-dihydrothieno[2,3-c]pyridine-2,6(5H)-dicarboxamide], the IC50 is < 50 nM.

Turning to `O=C(NO)c1cc2c(s1)CN(C(=O)c1ccc(C(F)(F)F)cc1)CC2` [Compound 171, N-hydroxy-6-(4-(trifluoromethyl)benzoyl)-4,5,6,7-tetrahydrothieno[2,3-c]pyridine-2-carboxamide], the IC50 is < 50 nM.

For `COc1cc(OC)nc(-c2ccc(C(=O)N3CCc4sc(C(=O)NO)cc4C3)cc2)n1` [Compound 32, 5-(4-(4,6-dimethoxypyrimidin-2-yl)benzoyl)-N-hydroxy-4,5,6,7-tetrahydrothieno[3,2-c]pyridine-2-carboxamide], the IC50 was < 50 nM.

The term IC50 denotes the concentration that inhibits the measured activity by half. Higher therefore signals weaker potency.
